This experiment concerns turkey poults of stock BUT 9. In words: Free-choice feed consumption test in 6 day turkey poults. It is filed as in vivo. The settings on record: per cage of 5 turkey poults. From the text: Test item no. 2 therefore comprises 0.05% of olfactory additive for 99.95% of methionine hydroxyl-analog. The test items are incorporated into a mixture of maize and soya, which is used as basic feed. The experimental plan is the following: [table] 150 turkey poults of stock BUT 9 are selected and placed in cages fitted out with a water bowl and two feeders with a capacity of about 0.3 kg. 5 turkey poults are placed per cage. The animals receive during the pre-experimental period (i.e. from D0to D6, 8.00am), an identical standard starting feed. During the experimental phase (i.e. D6 from 8am to 5pm), the animals are separated into three groups 10 A, B and C. For each group and each cage of this group, the animals have the choice between two test items. For example the animals of group A may choose between test item no. 3 and test item no. 1. Feeding is ad libitum with checking of consumption at […]. Furthermore, at each measuring time, the two feeders are interchanged in order to prevent the animals from being accustomed to the positioning of the feeders. […] The illustrated consumption is the consumption per cage, i.e. for 5 turkey poults. This consumption satisfies the following formula: (weight of the feeder at the end of the period)-(weight of the feeder at the beginning of the period). Averages are performed for each group over 12 cages.

With `CSCC[C@H](N)C(=O)O` [Test item no. 3, methionine], the “Consumption, Average” value (T0 + 1 h, group A: choice test item no. 3 (0.2%) vs no. 1 (0.23%)) was 6.8 g; the “Consumption, Average” value (T0 + 1 h, group B: choice test item no. 3 (0.2%) vs no. 2 (0.23%), no. 2 = hydroxy analog + 0.5 g/kg olf. additive) amounted to 9.1 g; the “Consumption, Average” value (T0 + 3 h, group A: choice test item no. 3 (0.2%) vs no. 1 (0.23%)) is 15.5 g; the “Consumption, Average” value (T0 + 3 h, group B: choice test item no. 3 (0.2%) vs no. 2 (0.23%)) is 14.9 g; the “Consumption, Average” value (T0 + 5 h, group A: choice test item no. 3 (0.2%) vs no. 1 (0.23%)) is on record as 23.3 g; the “Consumption, Average” value (T0 + 5 h, group B: choice test item no. 3 (0.2%) vs no. 2 (0.23%)) is given as 22.6 g. For the same compound, the “Consumption, Average” value amounted to 30.3 g (T0 + 7 h, group A: choice test item no. 3 (0.2%) vs no. 1 (0.23%)); 30.0 g (T0 + 7 h, group B: choice test item no. 3 (0.2%) vs no. 2 (0.23%)); 37.7 g (T0 + 9 h, group A: choice test item no. 3 (0.2%) vs no. 1 (0.23%)); 36.8a g (T0 + 9 h, group B: choice test item no. 3 (0.2%) vs no. 2 (0.23%)).

The values above are taken from patent US20070166356A1, “Food supplement for animals, comprising an olfactory additive” (ADISSEO IRELAND LIMITED, priority 2004, published 2007).
